For series [1], the system named is Colo320HSR introduced with RON-active Δ160 gene. In words: Induction of apoptosis. The format is cell-based. An excerpt: (§1) Additionally, Colo320HSR, the colon cancer cell line in which RON is not expressed, was introduced with the RON-active Δ155 gene and the RON-active Δ160 gene, which are constantly active in the Colo320HSR, and treated with CJ12524 at various concentrations in order to confirm the presence of apoptosis.

The test system of series [2] is Colo320HSR introduced with RON-active Δ155 gene. In words: Induction of apoptosis. The format is cell-based.
From the text: as §1

The target of series [3] is T1, RON phosphorylation (Homo sapiens, UniProt Q04912).
T1 construct: endogenous in cells; host or cells: HCT8 (cultured, and as xenograft tumour in nude mice)
Description: RON phosphorylation in tumor tissue of the HCT8 xenograft model (immunochemical staining, western blot). The format is in vivo. Conditions: after completion of administration, FIG. 8c, 8d. The procedure: (§2) The cells in the sample were lysed using RIPA buffer and the protein was extracted therefrom using a high speed centrifuge. The protein in an amount of 30 μg per cell was separated by electrophoresis, transferred onto a PDVF membrane by western blot, and allowed to react with RON antibodies, which were diluted in 5% skim milk at a 1:2000 ratio, at 4° C. for 12 hours. Then, the resultant was washed 3 times with TBS-T buffer for 15 minutes per wash, reacted with the secondary antibodies, which were diluted in 5% skim milk at a 1:2000 ratio, at room temperature for 2 hours, washed 3 times with TBS-T buffer for 15 minutes per wash. The illumination of the PDVF membrane was induced using ECL buffer and the expression of the RON protein was developed using an X-ray film. Additionally, 1 μg of the RON antibody was added to the protein in an amount of 500 μg per cell by immunoprecipitation method, reacted at 4° C. for 12 hours, and anti-antibody beads were added thereto to immunoprecipitate the RON antibody. The resultant was separated by electrophoresis, transferred onto a PDVF membrane by western blot, and allowed to react with p-Tyr antibodies, which were diluted in 5% skim milk at a 1:1000 ratio, at 4° C. for 12 hours. […]
A general note: In western blotting, separated proteins are transferred to a membrane and probed.

Series [4] concerns HCT8. In words: Cell invasion (cell metastasis). The format is cell-based. Conditions: HCT8, FIG. 7e. The method, then: HCT8, a colon cancer cell line where RON is always phosphorylated, was treated with CJ12524 in order to confirm the degree of cell invasion.
In series [5] the test system is HCT8 cell line xenograft in nude mice. In words: RON-active cancer cell xenograft model, tumor size, tumor weight, body weight. Format: in vivo, mouse. The procedure: For analyzing the drug sensitivity to CJ12524 in an in-vivo state, the present inventors transplanted a cancer cell line which was determined to be positive against the RON activity into nude mice, and thereby a cancer cell-derived xenograft model ([…]) was prepared.

Series [6] deals with RON (p-RON) in HT29. Description: Inhibition of RON phosphorylation in HT29 colon cancer cells. The format is cell-based. Conditions: HT29, various concentrations. The method, then: as §2
Series [7] concerns the target T2, RON (p-RON) in HCT8 (Homo sapiens, UniProt Q04912).
T2 construct: endogenous in cells; host or cells: HCT8 (cultured, and as xenograft tumour in nude mice)
Description: Inhibition of RON phosphorylation in HCT8 colon cancer cells. The note with it: HCT8, various concentrations. The format is cell-based. The method, then: as §2

Series [8] deals with T3, RON-active Δ155 (Homo sapiens, UniProt Q04912, DEL574-682/INS813Q).
T3 construct: expressed in transfected cells; host or cells: Colo320HSR
In words: Inhibition of RON phosphorylation in Colo320HSR introduced with RON variant. Format: cell-based. Conditions: Colo320HSR with RON-active Δ155 gene. The method, then: as §2

In series [9] the test system is RON-active Δ160. Described as above. The note with it: Colo320HSR with RON-active Δ160 gene. The format is cell-based. The procedure:
as §2

Series [10] relates to HT29. Description: Induction of apoptosis. Format: cell-based. The procedure: (§3) HT29 and HCT8, the colon cancer cell lines which have a high p-RON expression level because RON is always phosphorylated, were treated with CJ12524 in order to confirm the presence of apoptosis.
Series [11] deals with HCT8. Description: Induction of apoptosis. The format is cell-based. The procedure: as §3
In series [12] the test system is MKN1 cells transplanted into Balb/c nude mice. In words: Stomach cancer cell xenograft mouse model without RON activity, tumor volume. Format: in vivo. The note with it: 30 mpk and 100 mpk oral daily, FIG. 9. The source says:
It was confirmed whether tumor formation can be inhibited by CJ12537 in a stomach cancer xenograft mouse model without RON activity.
Specifically, 5-to 6-week-old Balb/c nude mice were subcutaneously injected with 1×10^7 cells (MKN1 parent, MKN1 RONΔ160 stable cell) and Matrigel at a 1:1 (v/v) ratio. When the tumor size grew to a size of 90 mm^3 to 100 mm^3, the mice were divided into groups and administered with drugs. Vehicle, CJ12537 (30 mpk), CJ12537 (100 mpk), and positive control (Amgen; 30 mpk) were orally administered daily. The tumor size was measured once in three days. Upon completion of the administration, the mice were sacrificed and tissues were ablated and the weight of tumor was measured. In particular, proteins were extracted from the tissues and the changes in expression pattern of p-RON and related proteins were confirmed by western blot analysis. Additionally, for confirming the change in tumor size, the tumor size was measured once every three days and compared and analyzed even after the completion of drug administration.

For series [13], the system named is Colo320HSR introduced with RON Δ160. Description: Colo320HSR xenograft animal model, inhibition of tumor growth. Format: in vivo. The method, then: (§4) Specifically, an animal model using the Colo320HSR cell line without RON activity (control group) and an animal model using the cell line introduced with the RON-active Δ155 gene and the RON-active Δ160 gene, which are constantly expressed, or a RON M1254T mutant were prepared, and their effects of inhibiting tumor formation by CJ12537 were compared.

Series [14] concerns Colo320HSR introduced with RON Δ155. The series is described as above. The format is in vivo. The note with it: RON-active variant Δ155. The method, then:
as §4

For series [15], the system named is Colo320HSR control (pMET & pRON negative, without RON activity). Described as above. The format is in vivo. Conditions: various concentrations. The method, then: as §4
[16] abbreviates: various concentrations, 14 days, FIG. 8a.

“Also recorded” adds a separate entry of the source.

T2 sequence (Q04912 25-1400): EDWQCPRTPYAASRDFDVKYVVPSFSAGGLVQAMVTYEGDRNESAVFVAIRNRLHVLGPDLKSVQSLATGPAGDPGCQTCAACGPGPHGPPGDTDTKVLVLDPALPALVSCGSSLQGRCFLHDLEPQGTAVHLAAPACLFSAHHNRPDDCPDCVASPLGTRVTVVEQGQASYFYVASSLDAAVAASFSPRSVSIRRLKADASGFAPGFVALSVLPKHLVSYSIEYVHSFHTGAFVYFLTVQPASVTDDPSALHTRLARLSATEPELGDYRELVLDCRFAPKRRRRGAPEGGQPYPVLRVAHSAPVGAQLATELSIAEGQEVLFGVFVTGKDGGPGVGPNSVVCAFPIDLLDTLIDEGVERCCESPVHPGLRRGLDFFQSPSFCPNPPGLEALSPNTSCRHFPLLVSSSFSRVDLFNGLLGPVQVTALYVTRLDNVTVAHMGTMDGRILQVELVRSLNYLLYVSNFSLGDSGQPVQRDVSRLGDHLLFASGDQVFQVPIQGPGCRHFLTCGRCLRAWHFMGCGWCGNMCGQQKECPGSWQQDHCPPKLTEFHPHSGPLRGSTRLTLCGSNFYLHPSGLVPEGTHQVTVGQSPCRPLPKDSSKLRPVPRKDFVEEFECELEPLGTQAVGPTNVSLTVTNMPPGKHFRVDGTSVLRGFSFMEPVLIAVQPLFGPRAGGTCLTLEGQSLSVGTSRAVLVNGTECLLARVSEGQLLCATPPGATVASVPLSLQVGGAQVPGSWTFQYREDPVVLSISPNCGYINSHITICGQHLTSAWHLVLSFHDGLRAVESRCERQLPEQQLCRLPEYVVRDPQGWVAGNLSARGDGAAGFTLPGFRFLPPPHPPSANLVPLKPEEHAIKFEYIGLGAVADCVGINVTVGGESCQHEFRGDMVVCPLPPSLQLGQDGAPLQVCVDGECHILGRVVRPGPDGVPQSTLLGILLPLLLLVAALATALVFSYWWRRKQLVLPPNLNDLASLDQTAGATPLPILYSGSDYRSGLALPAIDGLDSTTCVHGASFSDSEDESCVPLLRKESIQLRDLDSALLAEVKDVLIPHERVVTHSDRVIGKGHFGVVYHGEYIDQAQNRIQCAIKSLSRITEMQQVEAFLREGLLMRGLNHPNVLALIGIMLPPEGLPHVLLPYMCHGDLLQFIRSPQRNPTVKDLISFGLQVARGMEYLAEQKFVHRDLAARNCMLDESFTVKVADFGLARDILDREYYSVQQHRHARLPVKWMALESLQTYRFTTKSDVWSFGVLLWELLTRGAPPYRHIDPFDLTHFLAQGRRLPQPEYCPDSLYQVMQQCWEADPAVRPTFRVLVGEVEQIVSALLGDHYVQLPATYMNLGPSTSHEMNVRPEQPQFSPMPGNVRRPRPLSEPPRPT
T3 sequence (Q04912 with tags, fused parts or gaps isoform Q04912-2 DEL574-682/INS813Q): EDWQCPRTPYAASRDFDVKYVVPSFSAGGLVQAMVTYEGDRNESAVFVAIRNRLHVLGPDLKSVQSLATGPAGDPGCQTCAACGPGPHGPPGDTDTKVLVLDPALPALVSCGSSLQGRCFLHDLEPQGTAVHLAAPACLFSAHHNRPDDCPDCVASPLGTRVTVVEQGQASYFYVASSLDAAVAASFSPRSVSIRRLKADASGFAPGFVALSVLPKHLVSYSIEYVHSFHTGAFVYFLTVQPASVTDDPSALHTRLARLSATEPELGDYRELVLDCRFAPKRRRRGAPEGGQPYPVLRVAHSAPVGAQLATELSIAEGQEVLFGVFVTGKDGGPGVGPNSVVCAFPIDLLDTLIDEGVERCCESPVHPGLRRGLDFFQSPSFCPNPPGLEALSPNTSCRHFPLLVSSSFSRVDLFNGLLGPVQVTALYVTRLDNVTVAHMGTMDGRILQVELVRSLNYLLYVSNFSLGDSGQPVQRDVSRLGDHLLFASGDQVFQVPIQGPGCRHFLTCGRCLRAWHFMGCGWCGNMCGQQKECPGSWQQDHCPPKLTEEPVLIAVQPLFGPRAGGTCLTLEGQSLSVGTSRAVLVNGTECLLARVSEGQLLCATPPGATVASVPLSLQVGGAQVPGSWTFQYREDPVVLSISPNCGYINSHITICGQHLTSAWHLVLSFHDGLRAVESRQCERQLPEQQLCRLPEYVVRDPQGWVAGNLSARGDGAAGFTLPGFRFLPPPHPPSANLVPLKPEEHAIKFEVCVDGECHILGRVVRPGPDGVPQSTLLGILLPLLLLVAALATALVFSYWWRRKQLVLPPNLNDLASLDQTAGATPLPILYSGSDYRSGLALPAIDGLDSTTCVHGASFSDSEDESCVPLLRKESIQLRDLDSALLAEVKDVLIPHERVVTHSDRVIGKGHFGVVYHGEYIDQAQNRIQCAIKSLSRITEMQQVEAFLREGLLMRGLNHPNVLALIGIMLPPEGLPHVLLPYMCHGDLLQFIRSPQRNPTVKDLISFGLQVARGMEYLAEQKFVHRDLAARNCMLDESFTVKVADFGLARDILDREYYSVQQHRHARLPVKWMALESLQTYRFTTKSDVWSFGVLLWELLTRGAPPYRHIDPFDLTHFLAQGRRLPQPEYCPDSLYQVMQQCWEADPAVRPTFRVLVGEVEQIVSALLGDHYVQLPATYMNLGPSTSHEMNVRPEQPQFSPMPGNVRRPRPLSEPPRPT
T1 sequence (Q04912 25-1400): as the sequence (Q04912 25-1400) above

`CCOc1ccn(-c2ccc(F)cc2)c(=O)c1C(=O)Nc1ccc(Oc2ccnc3cc(-c4ccccn4)sc23)c(F)c1` [CJ12524, 4-ethoxy-N-(3-fluoro-4-(2-(pyridin-2-yl)thieno[3,2-b]pyridin-7-yloxy)phenyl)-1-(4-fluorophenyl)-2-oxo-1,2-dihydropyridin-3-carboxamide]: the “expression of cleaved caspase 3 (apoptosis marker)” value in [1] (Colo320HSR RON-active Δ160, according to the concentration) is “increased”; in series [2] (Colo320HSR RON-active Δ155, according to the concentration) it was “increased”. In addition, the apoptosis entry in series [1] (Colo320HSR RON-active Δ160, various concentrations, FIG. 7d) was “increased”; in series [2] (Colo320HSR RON-active Δ155, various concentrations, FIG. 7d), “increased”; in series [10] (HT29, various concentrations, according to the concentration, FIG. 7c), “increased”; in series [11] (HCT8, various concentrations, according to the concentration, FIG. 7c), “increased”. Moreover, in series [3], the “RON phosphorylation in tumor tissue” value is reported as “decreased”. Also, the “inhibition of the degree of cell metastasis (cell invasion)” value in series [4] is “about 60%”. The “tumor weight upon completion of drug administration” value in series [5] (all treated groups, FIG. 8b) is reported as “reduced”. For the same compound, the “body weight of the mice” value in series [5] (setting [16]) is “almost no decrease”. The “tumor growth (tumor size)” value in series [5] (setting [16]) is on record as “inhibited”. For the same compound, the RON phosphorylation result in [6] is “inhibited; also recorded: reduced”; in series [7] it was “inhibited; also recorded: reduced”; in series [8], “reduced”; in series [9], “reduced”. The “expression of cleaved caspase 3” value in [10] (HT29) and in [11] (HCT8) was “increased” each time.
Turning to `CCOc1ccn(-c2ccc(F)cc2)c(=O)c1C(=O)Nc1ccc(Oc2ccnc3cc(-c4cn(C)cn4)sc23)c(F)c1` [CJ12537, 4-ethoxy-N-(3-fluoro-4-(2-(1-methyl-1H-imidazol-4-yl)thieno[3,2-b]pyridin-7-yloxy)phenyl)-1-(4-fluorophenyl)-2-oxo-1,2-dihydropyridin-3-carboxamide], the tumor volume entry in series [12] was “no noticeable change”. In addition, in series [13] (Colo320HSR RON Δ160, 30 MPK, vehicle = 1), the “Tumor growth relative to vehicle (fold)” value is recorded as 0.71 fold. Further, the tumor formation result in series [13] (RON-active variant Δ160) is “inhibited tumor formation”; in series [14] it was “inhibited tumor formation”; in [15], “did not inhibit tumor formation at all”.
